Assay results taken from paper PMC4706618, “Comparison of bactericidal and cytotoxic activities of trichogin analogs” (Data in Brief, 2015).
≈ marks a conversion by molar mass, not a printed value. Like-named read-outs stand apart in the source and are kept apart here. Non-standard residues stand in square brackets, D forms with d. Residues, ends and D or L forms follow the SMILES beside them. *: point of attachment. Leu(ol) = CC(C)C[C@H](N)CO; Octanoyl = CCCCCCCC(=O)*; Aib = CC(C)(N)C(=O)O

Tests used:
[1] = system: S. aureus, ATCC BAA-44 (methicillin-resistant strain); format: cell-based, Staphylococcus aureus; settings: after 24 h at 37 °C, broth microdilution in LB, 5×10^5 CFU/ml; ±SE, N≥4; peptide dose range 0–64 µM
Procedure: (§1) E. coli ATCC 25922, the methicillin-resistant strain of S. aureus, ATCC BAA-44, P. aeruginosa ATCC 25668 and S. epidermidis ATCC 700565 was a kind gift of Prof. Elena Reddi (Dept. of Biology, University of Padova, Italy). Cultures were maintained in Luria Bertani (LB) agar. MICs (Minimal inhibitory concentrations) of the peptides were determined using the broth microdilution method. Two-fold serial dilutions of each peptide, from 1 to 64 μM, were prepared in LB and 50 μl per well were arranged in sterile 96-well plates (Falcon). Then, an aliquot of bacterial cell suspension was added to each well, at a final concentration of 5×10^5 CFU/ml.

[2] = system: S. epidermidis ATCC 700565; format: cell-based, Staphylococcus epidermidis; settings: after 24 h at 37 °C, broth microdilution in LB, 5×10^5 CFU/ml; ±SE, N≥4; peptide dose range 0–64 µM
Procedure: as §1

[3] = system: P. aeruginosa ATCC 25668; format: cell-based, Pseudomonas aeruginosa; settings: after 24 h at 37 °C, broth microdilution in LB, 5×10^5 CFU/ml; ±SE, N≥4; peptide dose range 0–64 µM
Procedure: as §1

[4] = system: E. coli ATCC 25922; format: cell-based, Escherichia coli; settings: after 24 h at 37 °C, broth microdilution in LB, 5×10^5 CFU/ml; ±SE, N≥4; peptide dose range 0–64 µM
Procedure: as §1

[5] = system: Gram^− and Gram^+ bacteria; assay: Antibacterial activity, all strains taken together; format: cell-based; settings: additional U at position 6 or U1 replaced with L; in words
Procedure: as §1

[6] = system: human cells (lymphocytes, PMNs, monocytes, HL60, HeLa, A431, A549, CCD34Lu); assay: Cytotoxicity on human cells, MTS reduction and LDH release; format: cell-based; settings: 24 h, MTS/LDH EC50, all tested cells; in words
Procedure: To monitor the possible differential cytocidal effect of trichogin and its analogs on human cells (healthy and cancer cells, non-leukocytes and leukocytes), we incubated the peptides with (i) primary human leukocytes (lymphocytes, PMNs and monocytes), freshly isolated from blood of healthy donors (ii) the monocytes-like HL60 cell line from human myeloid leukemia, and (iii) three tumor-derived non-leukocyte cells lines: HeLa ([…]), A431 (human epidermoid carcinoma) and A549 (human lung carcinoma) and the in vitro stabilized line CCD34Lu (from human normal lung).
HeLa, A431 and CCD34-Lu cells were maintained in DMEM medium (Gibco), A549 in F12 medium (Gibco) and HL60 in RPMI medium (Gibco), supplemented with 10% FCS (Euroclone) and antibiotics (penicillin and streptomycin, 100 U/ml, Invitrogen) at 37 °C in a humidified atmosphere containing 5% (v/v) CO2; cells were split every 2–3 days. Human monocytes, polymorphonuclear leukocytes (PMNs) and lymphocytes were purified from buffy coats of healthy donors, kindly provided by the Centro Immunotrasfusionale, Hospital of Padova. Briefly, for monocyte purification, peripheral blood mononuclear cells (PBMC) were isolated from buffy coats of healthy donors by density gradient centrifugation on Ficoll-Paque Plus (GE Health care), which density is optimized for the isolation of mononuclear cells. Separate monocyte and T-cell fractions were obtained from PBMCs by Percoll density gradient centrifugation (GE Health care); residual lymphocytes were removed by incubation in 2% fetal calf serum (FCS) RPMI at 37 °C and subsequently washed to eliminate non adherent cells. Unless otherwise specified, cells were kept at 37 °C in a humidified atmosphere containing 5% (v/v) CO2 in RPMI-1640 supplemented with 10% FCS. For PMNs purification, the pellet of cells obtained after the centrifugation on Ficoll gradient was subjected to dextran erythrocytes precipitation; residual erythrocytes were removed by hypotonic lysis in 155 mM NH4Cl, 10 mM KHCO3, and […] Na2EDTA at pH 7.4 and cells were cultured in RPMI medium, supplemented with 10% FCS. For lymphocytes preparation, buffy coats were incubated with 50 μl/ml of Rosette Sep® Human T Cell Enrichment Cocktail (StemCell Technologies). Blood was then centrifuged over a Ficoll gradient and cells were cultured in RPMI medium, supplemented with 10% FCS.
(§2) Twenty-four hours before the experiment, A431, HeLa, A549 and CC34-Lu cells were detached by means of trypsin treatment (Gibco), counted and seeded onto a 96 wells/plate (8×10^3 cells/well, Falcon). After purification, monocytes were seeded onto a 96 wells/plate (2×10^6/well) and left to adhere to the plastic; then cells were immediately treated with stimuli. PMNs and lymphocytes (2×10^6 cells/well) and HL60 cells (40×10^3) were seeded onto cell plates and subsequently treated. Different peptides were diluted in culture medium (from 20 μM to 1 μM) and added to the cells. As a […] control cells were treated with medium without stimuli. Twenty-four hours after treatment, the cell supernatant was collected for subsequent assay (LDH assay) and cells were tested using a CellTiter 96® AQueous One Solution Reagent (Promega). Plates were read with an ELISA reader (Amersham Biosciences) at 492 nm. Data were expressed as % of absorbance value compared to untreated cells (assumed as 100% viable). Alternatively, the EC50 (the concentration of drug where 50% of cells died) was calculated for each peptide and each kind of tested cell.
(§3) 50 μl of the cell supernatant was tested with a CytoTox 96® Non-Radioactive Cytotoxicity Assay kit (Promega). EC50 (the concentration of drug that induced the lysis of 50% of the total cell number) was calculated for each peptide and each kind of tested cell.

[7] = system: HeLa cells; assay: Cytotoxicity on HeLa cells, MTS/LDH; format: cell-based, human; settings: 24 h, in words
Procedure: as §2, §3

[8] = system: HeLa cells; assay: Propidium iodide / Annexin V assay (FACS); format: cell-based, human; settings: 18 h treatment, up to 20 μM, in words
Procedure: HeLa cells were seeded on 24-wells plastic trays (Falcon) the day before the experiment, while HL60 were used directly. Cells were treated for 18 h with different trichogin analogs (up to 20 μM); then they were washed with PBS, detached with trypsin (in the case of HeLa cells), centrifuged at 200g for 5 min, suspended in 50 μl of incubation buffer and incubated for 15 min at 37 °C with 2 μl of Annexin-V-Fluos (Roche). Cells were finally diluted in 250 μl of the incubation buffer and 15 μl of Propidium Iodide (Sigma) were added to each sample just before the acquisition with FACSCanto® (Beckton Dickinson). Percentage of healthy (Annexin V^−/PI^−), apoptotic (Annexin V^+/PI^−), oncotic (Annexin V^−/PI^+) and late apoptotic/abortive oncotic (Annexin V^+/PI^+) cells of the total (10^6 cells) was calculated using FACSDiva Software.

[9] = system: Erythrocytes; assay: Hemolytic activity (hemoglobin release); format: cell-based; settings: erythrocytes treated 24 h, hemoglobin release read spectrophotometrically; in words
Procedure: Fig. 7 Hemolytic activity of trichogin and its analogs. Erythrocytes were treated for 24 h with different concentration of peptides, centrifuged and hemoglobin release was measured spectrophotometrically. Hemolysis is expressed as percentage relative to positive control (erythrocytes treated with distilled water). § Indicates data from for comparison.

[10] = system: S. aureus, ATCC BAA-44 (methicillin-resistant strain); settings: after 24 h; ±SE; § data for comparison; ref [6]; cited from earlier work
Procedure: Table 2 MICs (μM±SE; N≥4; peptides dose range: 0–64 µM) after 24 h against two Gram^+ and two Gram^− bacterial strains (§ indicates data from for comparison). | column: S. aureus

[11] = system: S. epidermidis ATCC 700565; settings: after 24 h; ±SE; § data for comparison; ref [6]; cited from earlier work
Procedure: Table 2 MICs (μM±SE; N≥4; peptides dose range: 0–64 µM) after 24 h against two Gram^+ and two Gram^− bacterial strains (§ indicates data from for comparison). | column: S. epidermis

[12] = system: P. aeruginosa ATCC 25668; settings: after 24 h; ±SE; § data for comparison; ref [6]; cited from earlier work
Procedure: Table 2 MICs (μM±SE; N≥4; peptides dose range: 0–64 µM) after 24 h against two Gram^+ and two Gram^− bacterial strains (§ indicates data from for comparison). | column: P. aeruginosa

[13] = system: E. coli ATCC 25922; settings: after 24 h; ±SE; § data for comparison; ref [6]; cited from earlier work
Procedure: Table 2 MICs (μM±SE; N≥4; peptides dose range: 0–64 µM) after 24 h against two Gram^+ and two Gram^− bacterial strains (§ indicates data from for comparison). | column: E. coli

[14] = system: Gram^− and Gram^+ bacteria; settings: both Gram^− and Gram^+ bacteria; ref Tavano et al., 2015 [6]; cited from earlier work
Excerpt: (§4) Peptaibiotics are a group of membrane active peptides of fungal origin. They typically contain α-aminoisobutyric acid (Aib; 1-letter code, U) and other non-coded residues (Toniolo and Brückner, 2009; Neumann et al., 2015; Benedett et al., 1982), [2], [3] stabilizing their helical structure. Peptaibols are peptaibiotics carrying a 1, 2-aminoalcohol at the C-terminus. When a fatty acid chain (of 8–10 carbon atoms) is present at their N-terminus, they are called lipopeptaibols (Toniolo et al., 2001; Degenkolb et al., 2003), [5]. We found (Tavano et al., 2015) that the lipo ...

[15] = system: human cells (lymphocytes, PMNs, monocytes, HL60, HeLa, A431, A549, CCD34Lu); settings: tumor and healthy human cells; ref Tavano et al., 2015 [6]; read-out: EC50 for killing tumor and healthy human cells; cited from earlier work
Excerpt: as §4

| Molecule | MIC S. aureus [1] | MIC S. epidermis [2] | MIC P. aeruginosa [3] | MIC E. coli [4] | antibacterial activity compared with the K-containing analogs [5] | cytotoxicity compared with trichogin or the corresponding analog [6] | toxicity to HeLa cells compared with trichogin [7] | type and extent of HeLa cell death, PI/Annexin V labeling [8] | hemolytic effect [9] | MIC S. aureus [10] | MIC S. epidermis [11] | MIC P. aeruginosa [12] | MIC E. coli [13] | antibacterial effects (none up to the stated concentration) [14] | EC50 [15] |
| --- | --- | --- | --- | --- | --- | --- | --- | --- | --- | --- | --- | --- | --- | --- | --- |
| CCCCCCCC(=O)NC(C)(C)C(=O)NCC(=O)N[C@@H](CC(C)C)C(=O)NC(C)(C)C(=O)N[C@@H](CCCCN)C(=O)NC(C)(C)C(=O)N[C@@H](CC(C)C)C(=O)NC(C)(C)C(=O)NCC(=O)N[C@H](C(=O)N[C@H](CO)CC(C)C)[C@@H](C)CC [K5U6] (Octanoyl-[Aib]GL[Aib]K[Aib]L[Aib]GI[Leu(ol)]) | 3.8 ± 2.4 µM (≈ 4.43 µg/mL) | 2.4 ± 0.9 µM (≈ 2.8 µg/mL) | >64 µM | >64 µM | failed to increase the antibacterial activity | increased cytotoxicity | significantly more effective in killing HeLa cells | predominantly a late apoptotic phenotype but also significant necrosis |  |  |  |  |  |  |  |
| CCCCCCCC(=O)N[C@@H](CC(C)C)C(=O)NCC(=O)N[C@@H](CC(C)C)C(=O)NC(C)(C)C(=O)NCC(=O)NCC(=O)N[C@@H](CC(C)C)C(=O)NC(C)(C)C(=O)NCC(=O)N[C@H](C(=O)N[C@H](CO)CC(C)C)[C@@H](C)CC [L1] (Octanoyl-LGL[Aib]GGL[Aib]GI[Leu(ol)]) | 32 ± 0 µM (≈ 35 µg/mL) | >64 µM | >64 µM | >64 µM |  | weakly affected |  | as effective as trichogin in killing HeLa cells |  |  |  |  |  |  |  |
| Oc-UGLUGGLUGILol [GA IV, trichogin GA IV, lipopeptaibol trichogin, Oc-UGLUGGLUGILol] |  |  |  |  |  |  |  |  | weakly hemolytic | >64 µM | >64 µM | >64 µM | >64 µM | > 64 µM | 4 to 5 µM |
